Results taken from the NIST ThermoML archive (doi:10.1016/j.fluid.2014.09.024).
Numbers after ± are expanded uncertainties.

Experiments:
[1] = refractive index (Na D-line) (dimensionless); conditions: 323.15 K; 101 kPa; Liquid; Standard Abbe refractometry
[2] = for mass density: 101 kPa, Liquid, Vibrating tube method; for Normal melting temperature: Crystal, visual observation
[3] = xn = mol fraction of the nth substance listed; conditions: 323.15 K, 101 kPa, Liquid, Vibrating tube method
[4] = refractive index (Na D-line) (dimensionless); xn = mol fraction of the nth substance listed; conditions: 323.15 K, 101 kPa, Liquid, Standard Abbe refractometry

COC(=O)OC [dimethyl carbonate]
Conditions | Normal melting temperature [°C] | refractive index
[1] | – | 1.3546 ± 0.0007
[2] | 5.1 ± 0.4 | –

[2]
Conditions | mass density [kg/m3]
298.15 K | 1063.26 ± 0.12
323.15 K | 1029.81 ± 0.11

COc1ccccc1 [anisole] + COC(=O)OC
Conditions | mass density, [3] [kg/m3] | refractive index, [4]
x2 = 0 | 965.35 ± 0.11 | 1.5012 ± 0.0007
x2 = 0.05 | 967.83 ± 0.11 | 1.4963 ± 0.0007
x2 = 0.1001 | 970.34 ± 0.11 | 1.4908 ± 0.0007
x2 = 0.2001 | 975.5 ± 0.11 | 1.4795 ± 0.0007
x2 = 0.3 | 980.89 ± 0.11 | 1.4659 ± 0.0007
x2 = 0.4 | 986.63 ± 0.11 | 1.4516 ± 0.0007
x2 = 0.5 | 992.69 ± 0.11 | 1.437 ± 0.0007
x2 = 0.5999 | 999.08 ± 0.11 | 1.4226 ± 0.0007
x2 = 0.7 | 1005.87 ± 0.11 | 1.4087 ± 0.0007
x2 = 0.8 | 1013.1 ± 0.11 | 1.393 ± 0.0007
x2 = 0.9 | 1020.95 ± 0.11 | 1.3754 ± 0.0007
x2 = 0.95 | 1025.2 ± 0.11 | 1.3655 ± 0.0007

COc1ccccc1 [anisole] + Oc1ccccc1
Conditions | mass density, [3] [kg/m3] | refractive index, [4]
x1 = 0.05 | 1044.95 ± 0.25 | 1.535 ± 0.0007
x1 = 0.1001 | 1040.35 ± 0.23 | 1.5333 ± 0.0007
x1 = 0.2 | 1031.27 ± 0.2 | 1.5296 ± 0.0007
x1 = 0.3 | 1022.44 ± 0.17 | 1.5259 ± 0.0007
x1 = 0.4 | 1013.68 ± 0.15 | 1.522 ± 0.0007
x1 = 0.5 | 1005.11 ± 0.14 | 1.5183 ± 0.0007
x1 = 0.6103 | 995.89 ± 0.13 | 1.5144 ± 0.0007
x1 = 0.7 | 988.65 ± 0.12 | 1.5114 ± 0.0007
x1 = 0.8 | 980.8 ± 0.11 | 1.508 ± 0.0007
x1 = 0.9001 | 973.1 ± 0.11 | 1.5047 ± 0.0007
x1 = 0.9498 | 969.31 ± 0.11 | 1.503 ± 0.0007
x1 = 1 | 965.35 ± 0.11 | 1.5012 ± 0.0007

COC(=O)OC [dimethyl carbonate] + COc1ccccc1
x1 = 1
Conditions | mass density [kg/m3] | refractive index
[3] | 1029.81 ± 0.11 | –
[4] | – | 1.3546 ± 0.0007

Oc1ccccc1 [phenol] + COc1ccccc1
x2 = 0
Conditions | mass density [kg/m3] | refractive index
[3] | 1049.8 ± 0.27 | –
[4] | – | 1.5375 ± 0.0007

Oc1ccccc1 [phenol] + COC(=O)OC
Conditions | mass density, [3] [kg/m3] | refractive index, [4]
x2 = 0 | 1049.79 ± 0.27 | 1.5375 ± 0.0007
x2 = 0.0469 | 1049.78 ± 0.25 | 1.53 ± 0.0007
x2 = 0.1001 | 1049.78 ± 0.23 | 1.5222 ± 0.0007
x2 = 0.2001 | 1049.38 ± 0.21 | 1.5068 ± 0.0007
x2 = 0.3 | 1048.47 ± 0.18 | 1.4912 ± 0.0007
x2 = 0.3999 | 1047.12 ± 0.16 | 1.479 ± 0.0007
x2 = 0.5 | 1045.31 ± 0.15 | 1.4698 ± 0.0007
x2 = 0.6 | 1043 ± 0.13 | 1.4592 ± 0.0007
x2 = 0.7001 | 1040.26 ± 0.12 | 1.4428 ± 0.0007
x2 = 0.8 | 1037.11 ± 0.12 | 1.4169 ± 0.0007
x2 = 0.9 | 1033.66 ± 0.11 | 1.384 ± 0.0007
x2 = 0.9499 | 1031.81 ± 0.11 | 1.3675 ± 0.0007

COc1ccccc1 [anisole]
Conditions | Normal melting temperature [°C] | refractive index
[1] | – | 1.5012 ± 0.0007
[2] | -37.9 ± 0.4 | –

[2]
Conditions | mass density [kg/m3]
298.15 K | 989.42 ± 0.11
323.15 K | 965.35 ± 0.11

Oc1ccccc1 [phenol]
Conditions | Normal melting temperature [°C] | refractive index
[1] | – | 1.5375 ± 0.0007
[2] | 41.0 ± 0.4 | –

[2]
Conditions | mass density [kg/m3]
313.15 K | 1058.51 ± 0.28
323.15 K | 1049.8 ± 0.27

COC(=O)OC [dimethyl carbonate] + Oc1ccccc1
x1 = 1
Conditions | mass density [kg/m3] | refractive index
[3] | 1029.81 ± 0.11 | –
[4] | – | 1.3546 ± 0.0007
